{"source": "paper PMC6422423", "about": "“Constitutively active BRS3 is a genuinely orphan GPCR in placental mammals” (PLoS Biology, 2019)", "key": {"[1]": {"biological_target": "T1, NMBR (Homo sapiens, UniProt P28336)", "T1 construct": "HA; expressed in transfected cells; host or cells: HEK293", "assay": "Radioligand binding (competition)", "details": "[125I]-Tyr-NMB", "protocol": "HEK293 cells were seeded in a 10-cm tissue culture dish at a density of 10^6 cells per dish and grown overnight at 37°C in growth medium. The following morning, 5 μg of different species’ BRS3 plasmids were transfected. After 6 h, the medium was replaced with growth medium. Cells were maintained at 37°C in a 5% CO2 atmosphere and used 48 h later for binding assays. The positive control group included transfected GRPR and NMBR; the test group consisted of transfected BRS3 from different species. […] The cell concentration was adjusted to between 0.05 and 4 × 10^6 cells/ml for each receptor such that less than 20% of the total added radioactive ligand was bound during the incubation, and the results were compared to cells transfected with GRPR or NMBR adjusted in concentration to bind a similar amount of ligand. After the incubation, 100 μl aliquots were added to 1.5-ml microfuge tubes, which contained 100 μl of binding buffer to determine the total radioactivity. […] The amount of radioactivity bound to the cells was measured in a Cobra II Gamma counter (Packard Instruments). Binding was expressed as the percentage of total radioactivity that was associated with the cell pellet. […] Each point was measured in duplicate, and each experiment was replicated at least four times. […] All the experiment data were calculated using 1 pM ligand-treated as 100% control."}, "[2]": {"biological_target": "T2, GRPR (Homo sapiens, UniProt P30550)", "T2 construct": "HA; expressed in transfected cells; host or cells: HEK293", "assay": "Intracellular calcium assay", "format": "cell-based", "details": "10 nM peptide, HEK293, Fluo8, GRPR", "protocol": "(§1) Intracellular calcium was measured using the non-wash calcium assay Fluo8 kit (ab112129, Abcam) according to the manufacturer’s instructions. Briefly, HEK293 cells were seeded in 24-well plates and were transfected with GRPR, NMBR, BRS3, or the empty vector plasmid pcDNA3.1-V5-His (300 ng) and incubated overnight at 37°C with 5% CO2. The next day, the cells were replated into a 96-well assay plate (black plate and clear bottom). After 12 h, growth media were aspirated, and calcium dye was added. […] The basal fluorescence intensity was recorded 15 times at 1 Hz for […]. The results were normalized to the average basal fluorescence intensity in ratio, and the peak response was used for the result calculation. Calcium fold was calculated using no stimulation data as standard value."}, "[3]": {"test_system": "human BRS3 (hBRS3)", "assay": "Intracellular calcium assay (WT and mutants)", "format": "cell-based", "details": "10 nM peptide; for Calcium fold: HEK293, Fluo8, hBRS3; for Intracellular Ca2+, mutants vs wild type (in words): hBRS3 R127Q, S205P, and H294R, each", "protocol": "as §1"}, "[4]": {"test_system": "mouse BRS3 (mBRS3)", "assay": "Intracellular calcium assay (WT and mutants)", "format": "cell-based", "details": "for Calcium fold: 10 nM peptide, HEK293, Fluo8, mBRS3; for Intracellular Ca2+, mutants (in words): mBRS3 R127Q, S205P, and H294R, all three", "protocol": "as §1"}, "[5]": {"test_system": "chicken BRS3 (cBRS3)", "assay": "Intracellular calcium assay (WT and mutants)", "format": "cell-based, Gallus gallus", "details": "10 nM peptide, HEK293, Fluo8, cBRS3", "protocol": "as §1"}, "[6]": {"test_system": "turtle BRS3 (tBRS3)", "assay": "Intracellular calcium assay (WT and mutants)", "format": "cell-based, Chrysemys picta", "details": "10 nM peptide; for Calcium fold: HEK293, Fluo8, tBRS3; for Intracellular Ca2+, mutants vs wild type (in words): tBRS3 Q127R, P205S, and R294H, each", "protocol": "as §1"}, "[7]": {"test_system": "BRS3 receptors in nonplacental vertebrates", "assay": "Intracellular calcium assay, nonplacental pooled", "format": "cell-based, koala, platypus, chicken, turtle, frog, and spotted gar", "details": "10 nM peptide, HEK293", "protocol": "as §1"}, "[8]": {"test_system": "BRS3 receptors in placental mammals", "assay": "Intracellular calcium assay, placental pooled", "format": "cell-based, human, mouse, dog, and aardvark", "details": "10 nM peptide, HEK293", "protocol": "as §1"}, "[9]": {"test_system": "BRS3 receptors in nonplacental vertebrates", "assay": "ERK1/2 phosphorylation, nonplacental pooled", "format": "cell-based, koala, platypus, chicken, turtle, frog, and spotted gar", "details": "1,000 nM peptide, 0/2/5 min, HEK293", "protocol": "(§2) For ERK1/2 phosphorylation, HEK293 cells were seeded in 24-well plates and transfected with GRPR, NMBR, BRS3, mutants of different species’ BRS3, or an empty vector plasmid, pcDNA3.1-V5-His plasmid (300 ng). […] Each sample with an equal amount of protein was mixed with 6×SDS sample buffer, boiled for 5 min, and separated on 10% SDS-polyacrylamide gel electrophoresis (PAGE) before transferring the proteins onto a PVDF membrane. The membranes were then blocked at room temperature for 1 h with 5% milk powder in Tris-buffered saline-Tween (TBST), followed by subsequent incubation at 4°C overnight in TBST containing the different primary antibodies (1:1,000 dilution). After washing three times (10 min each time) with TBST, the membranes were incubated for 1 h in TBST containing the secondary antibodies (1:2,000 dilution), followed by washing three times (10 min each time) with TBST, prior to detection by chemiluminescence."}, "[10]": {"test_system": "BRS3 receptors in placental mammals", "assay": "ERK1/2 phosphorylation, placental pooled", "format": "cell-based, human, mouse, dog, and aardvark", "details": "1,000 nM peptide, 0/2/5 min, HEK293", "protocol": "as §2"}, "[11]": {"test_system": "BRS3 receptors of placental mammals", "assay": "Luciferase reporter, GRP/NMB stimulated, placental pooled", "format": "cell-based, human, mouse, dog, and aardvark", "details": "CRE/NFAT-RE/SRF-RE/SRE reporters; 0/10/100/1,000 nM, 12 h, HEK293", "protocol": "To detect constitutive activity of BRS3, HEK293 cells were seeded in 24-well plates and cotransfected with the CRE/NFAT-RE/SRF-RE/SRE luciferase reporter plasmids (50 ng), the BRS3 from different species, or BRS3 mutants with different doses (10 ng/50 ng/150 ng); after 24 h, cells were further incubated in serum-free media for another 12 h before luciferase assay. As for peptide supplementation treatment, HEK293 cells were cotransfected with the CRE/NFAT-RE/SRF-RE/SRE luciferase reporter plasmids (50 ng) and various genes (300 ng) of the bombesin receptor family. […] Luciferase activities were determined using luciferase assay kits (Beyotime, Shanghai, China) and normalized to β-galactosidase activity. All experiments were performed at least three times in triplicates. HEK293 cells transfected with pcDNA were used as a blank control in all luciferase experiments, and the fold was calculated compared to blank control."}, "[12]": {"test_system": "chicken BRS3 (cBRS3)", "assay": "ERK1/2 phosphorylation (WT and mutants)", "format": "cell-based, Gallus gallus", "details": "cBRS3 P205S; exception to the significant effects", "protocol": "as §2"}}, "data": [{"substance": "GSHWAVGHLM-NH2 [GRP, gastrin-releasing peptide]", "values": [{"measurement": "Inhibition of NMBR–NMB binding (in words)", "setting": "[1]", "value": "cannot inhibit"}, {"measurement": "Calcium fold", "setting": "[2]; replicate 1", "value": 5.512, "unit": "fold"}, {"measurement": "Calcium fold", "setting": "[2]; replicate 2", "value": 5.7711, "unit": "fold"}, {"measurement": "Calcium fold", "setting": "[2]; replicate 3", "value": 5.9191, "unit": "fold"}, {"measurement": "Calcium fold", "setting": "[3]; replicate 1", "value": 1.1274, "unit": "fold"}, {"measurement": "Calcium fold", "setting": "[3]; replicate 2", "value": 1.2515, "unit": "fold"}, {"measurement": "Calcium fold", "setting": "[3]; replicate 3", "value": 1.1684, "unit": "fold"}, {"measurement": "Intracellular Ca2+, mutants vs wild type (in words)", "setting": "[3]", "value": "remarkable increase of cellular Ca^2+ ions"}, {"measurement": "Calcium fold", "setting": "[4]; replicate 1", "value": 1.0113, "unit": "fold"}, {"measurement": "Calcium fold", "setting": "[4]; replicate 2", "value": 1.0374, "unit": "fold"}, {"measurement": "Calcium fold", "setting": "[4]; replicate 3", "value": 1.111, "unit": "fold"}, {"measurement": "Intracellular Ca2+, mutants (in words)", "setting": "[4]", "value": "significant increase in cellular Ca^2+ ions levels"}, {"measurement": "Calcium fold", "setting": "[5]; replicate 1", "value": 5.1641, "unit": "fold"}, {"measurement": "Calcium fold", "setting": "[5]; replicate 2", "value": 5.5593, "unit": "fold"}, {"measurement": "Calcium fold", "setting": "[5]; replicate 3", "value": 5.8165, "unit": "fold"}, {"measurement": "Calcium fold", "setting": "[6]; replicate 1", "value": 5.1678, "unit": "fold"}, {"measurement": "Calcium fold", "setting": "[6]; replicate 2", "value": 5.2199, "unit": "fold"}, {"measurement": "Calcium fold", "setting": "[6]; replicate 3", "value": 5.5876, "unit": "fold"}, {"measurement": "Intracellular Ca2+, mutants vs wild type (in words)", "setting": "[6]", "value": "remarkable decrease of cellular Ca^2+ ions"}, {"measurement": "Intracellular Ca2+ (in words)", "setting": "[7]", "value": "remarkable increase of Ca^2+ ions in cells"}, {"measurement": "Intracellular Ca2+ (in words)", "setting": "[8]", "value": "no stimulation was observed"}, {"measurement": "ERK phosphorylation (in words)", "setting": "[9]", "value": "increase in the levels of phosphorylated ERK"}, {"measurement": "ERK phosphorylation (in words)", "setting": "[10]", "value": "could not be activated"}, {"measurement": "Luciferase stimulation (in words)", "setting": "[11]", "value": "stimulation of luciferase units cannot be detected"}]}, {"substance": "neuromedin B [NMB]", "values": [{"measurement": "Intracellular Ca2+, mutants vs wild type (in words)", "setting": "[3]", "value": "remarkable increase of cellular Ca^2+ ions"}, {"measurement": "Intracellular Ca2+, mutants (in words)", "setting": "[4]", "value": "significant increase in cellular Ca^2+ ions levels"}, {"measurement": "Intracellular Ca2+, mutants vs wild type (in words)", "setting": "[6]", "value": "remarkable decrease of cellular Ca^2+ ions"}, {"measurement": "Intracellular Ca2+ (in words)", "setting": "[7]", "value": "remarkable increase of Ca^2+ ions in cells"}, {"measurement": "Intracellular Ca2+ (in words)", "setting": "[8]", "value": "no stimulation was observed"}, {"measurement": "ERK phosphorylation, mutant (in words)", "setting": "[12]", "value": "excepting P205S of cBRS3 for ERK phosphorylation activated by NMB"}, {"measurement": "ERK phosphorylation (in words)", "setting": "[9]", "value": "increase in the levels of phosphorylated ERK"}, {"measurement": "ERK phosphorylation (in words)", "setting": "[10]", "value": "could not be activated"}, {"measurement": "Luciferase stimulation (in words)", "setting": "[11]", "value": "stimulation of luciferase units cannot be detected"}]}]}
